We go through eight compounds from ChEMBL document CHEMBL1145264, “Synthesis of tricyclic analogs of stephaoxocanidine and their evaluation as acetylcholinesterase inhibitors” (Bioorg Med Chem Lett, 2005).

One may read the IC50 as the concentration at which inhibition is half-maximal.

Values joined by “and” are separate entries in the source; they are usually repeats but may differ in a detail not shown here. Equal values may be shown once.

Sequence of Acetylcholinesterase (P22303 whole entry): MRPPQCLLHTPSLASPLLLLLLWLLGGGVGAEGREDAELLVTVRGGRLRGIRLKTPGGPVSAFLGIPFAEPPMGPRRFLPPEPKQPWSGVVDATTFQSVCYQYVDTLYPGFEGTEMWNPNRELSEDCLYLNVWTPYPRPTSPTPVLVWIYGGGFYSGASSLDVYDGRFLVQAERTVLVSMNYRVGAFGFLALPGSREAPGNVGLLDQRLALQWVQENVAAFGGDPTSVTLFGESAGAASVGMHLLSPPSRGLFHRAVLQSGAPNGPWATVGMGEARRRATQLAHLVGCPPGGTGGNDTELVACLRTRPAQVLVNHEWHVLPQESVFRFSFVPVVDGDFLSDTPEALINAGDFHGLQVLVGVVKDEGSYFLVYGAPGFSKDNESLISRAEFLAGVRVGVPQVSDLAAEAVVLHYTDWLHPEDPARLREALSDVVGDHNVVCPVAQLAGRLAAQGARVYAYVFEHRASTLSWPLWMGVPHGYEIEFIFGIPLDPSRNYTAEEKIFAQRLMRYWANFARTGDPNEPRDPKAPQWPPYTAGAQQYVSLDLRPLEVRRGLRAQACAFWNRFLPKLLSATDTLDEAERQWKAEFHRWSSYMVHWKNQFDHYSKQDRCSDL

The test addresses Acetylcholinesterase (Homo sapiens, UniProt P22303).
Description: Inhibitory concentration against acetylcholinesterase
In turn, `C=CCC1(O)OCc2c(OC)c(OC)cc3ccnc1c23` (stereo not drawn) returned an IC50 of 174 µM.

On to `COc1cc2ccnc3c2c(c1OC)COC3(CC(O)CO)OC` (stereo not drawn), for which the IC50 is 96 µM and 95.4 µM.

On to `COc1cc2ccnc3c2c(c1OC)C(Br)OC3=O` (stereo not drawn), for which the IC50 was 46 µM and 46.3 µM.

`COc1cc2ccnc3c2c(c1OC)COC3(O)CC(O)CO` (stereo not drawn) had an IC50 of 109 µM.

Take `COc1cc2cc[n+](C)c3c2c(c1OC)C(Br)OC3=O` (stereo not drawn): the IC50 is 105 µM and 120 µM.

`C=CCC1(OC)OCc2c(OC)c(OC)cc3ccnc1c23` (stereo not drawn): the IC50 was 100 µM and 99.6 µM.

`COc1cc2ccnc3c2c(c1OC)COC3(CCCO)OC` (stereo not drawn) yielded a 50% inhibitory concentration (IC50) of 137 µM.

In turn, `COc1cc2ccnc3c2c(c1OC)COC3=O` showed an IC50 of 19.6 µM.
